Earlier results in US20080254084A1, “Antimicrobial Preparations Having a Content of Octenidine Dihydrochloride Encapsulated in Liposomes” (Air Liquide Sante (International), priority 2005, published 2008).
Structures can show the parent of a compound that is named as a salt.

Assays:
[1] = tested on: a large number of microbes; settings: concentrations of >0.001% octenidine dihydrochloride, within 1 min
[2] = octenidine dihydrochloride concentration

CCCCCCCCNc1cc[n+](CCCCCCCCCC[n+]2ccc(NCCCCCCCC)cc2)cc1 [octenidine dihydrochloride]
reduction factor [1]: 5 decadic units | concentration at which cytotoxicity is present [2]: > 0.001 % by weight
